From patent US8557864B2, “Agent having neurotrophic factor-like activity” (Nagoya Industrial Science Research Institute, priority 2007, dated 2013)

Assays:
mice [1] = assay: Voluntary alternation behavior test (Y-maze test) of mice administered with trimethyltin; assay type: in vivo
Experimental: The voluntary alternation behavior test (Y-maze test) is one kind of a behavior test using a Y-shaped maze constituted with three arms. First, a mouse is placed on the tip of one arm out of the three arms, letting the mouse freely explore in the maze over 8 minutes, and arms where the mouse transferred are recorded in order. Then, the number of times of transferring to each arm (total arm selection number (total arm entries)) and the number of sequentially selecting three different arms (number of alternation behavior (number of spontaneous behavior)) are counted.
Trimethyltin (hereinafter referred to as “TMT”) is an organic metal compound having neurotoxicity, and acute nerve cell death is cased particularly in granular nerve cells of the hippocampus dentate gyrus, which thus affects memory and learning abilities of a mouse.
The voluntary alternation tests (Y-maze tests) were performed on 1) test groups to which the compound 8 was singly administered and 2) test groups to which TMT and the compound 8 were administered. In the test groups to which the compound 8 was singly administered, the compound 8 was dissolved in 0.1% DMSO to adjust a concentration so as to have each of the doses of 100 and 500 μg/kg and intraperitoneally injected to 6 mice in every administration example each in a dose of 0.25 mL. In 0 μg/kg weight administration examples of controls, 0.25 mL of a phosphoric acid buffer containing 0.1% DMSO was intraperitoneally injected in each time. The voluntary alternation tests (Y-maze tests) were performed on each of the administration groups after the elapse of 2 hours from intraperitoneal administration. In the test group in which TMT and the compound 8 were administered, TMT (2 mg/kg weight) was intraperitoneally administered to a mouse, and the compound 8 was intraperitoneally administered in the same manner as the test groups in which the compound 8 was singly administered after 2 days have passed, and the voluntary alternation test (Y-maze test) was performed after the elapse of 2 hours. FIG. 32 show the results. Significance tests were performed in a Turkey's test (*, ##) and a Student's t-test (++). “DAEE” denotes the compound 8.

mice [2] = assay: Novel object recognition test on mice; assay type: in vivo; conditions: 100 and 500 μg/kg intraperitoneally, healthy mice, test started after 2 hours
Experimental: A promotion activity of brain functions due to the compound 8 was examined using a novel object recognition test. The novel object recognition test is a method of evaluating memory and learning abilities from behaviors after showing a “familiar object” and a “novel object” to mice, utilizing the fact that the mice take exploration behaviors (behaviors such as coming closer to or smelling an object) when they find the “novel object”.
The compound 8 was dissolved in 0.1% DMSO to adjust a concentration so as to have each dose of 100 and 500 μg/kg and intraperitoneally injected to 6 mice in every administration example each in a dose of 0.25 mL. In a 0 μg/kg weight administration example of a control, 0.25 mL of a phosphoric acid buffer containing 0.1% DMSO was intraperitoneally injected. The compound 8 was administered to mice and the novel object recognition test was performed after 2 hours. That is, a mouse was put in a place where two identical objects were present for 15 minutes to let the mouse memorize the two objects (these two objects will be “familiar objects”). After the elapse of 1 day, an exploration behavior test in which the mouse was put in a place where the “familiar objects and “novel objects” were present was carried out for 10 minutes FIG. 33 show the results. Significance tests were performed in a Student's t-test (*) and a Turkey's test (##). […]

[3] = system: mRNAs of BDNF, NT-3, NGF and GR; assay: mRNA expression of neurotrophic factors and glucocorticoid receptor in cortex of frontal lobe and hippocampus; assay type: in vivo, mice; conditions: 24 hours after 3 weeks of stress with compound 8, RT-PCR relative to β actin
Experimental: mRNA expressions of a brain-derived neurotrophic factor (hereinafter expressed as “BDNF”), neurotrophin-3 (hereinafter expressed as “NT-3”), a nervous growth factor (hereinafter expressed as “NGF”) and a glucocorticoid receptor (hereinafter expressed as “GR”) in a cortex of frontal lobe and a hippocampus of a mouse after stress were examined as follows. After 24 hours from completion of stress for 3 weeks in the same method as described in Example 2, mice administered with the compound 8 in each of the amounts of 0, 20, 100 and 500 μg/kg, at the same time as stress, and non-stressed mice administered with only a phosphoric acid buffer containing 0.1% DMSO were sacrificed and the cortexes of frontal lobes and hippocampi were excised respectively, and thereto were added TriZol. […]
The obtained precipitate was washed with 70% ethanol, dried and then dissolved in TE to form a total RNA sample. […] The fluorescence intensity of the band was read with a densitometer to digitalize and the obtained value was divided with a fluorescence intensity of a band of RT-PCR of β actin mRNA of an internal standard, which has been found separately, and a graph was formed assuming that the band value of a non-stressed mouse/β actin band value was 1.0. […]

[4] = Measurement of weights of mice before and after stress; assay type: in vivo; conditions: 3 weeks with stress
From the text: A weight of a mouse before stress was subtracted from the weight of the mouse immediately after administering the compound 8 as well as stress for 3 weeks to obtain a weight gap (g).

CCCCCCC/C=C/C(=O)OCC [Compound 8, trans-2-decenoic acid ethyl ester]
total arm entries (motor function) (mice [1]; 100 and 500 μg/kg intraperitoneally, 2 hours before test, with or without TMT): no difference | voluntary alternation behavior, compound singly administered (mice [1]; 100 and 500 μg/kg intraperitoneally, test after 2 hours): significantly increased | voluntary alternation behavior in TMT-treated mice (mice [1]; TMT 2 mg/kg intraperitoneally, compound 8 after 2 days, test after 2 hours): suppressed decrease | recognition index of novel objects (mice [2]): became high | expression of mRNAs of BDNF, NT-3, NGF and GR [3]: returned to the level of non-stressed examples | weight gap, stressed vs non-stressed example ([4]; 500 μg/kg administration group): no significant difference | ratio of weight decrease in stressed examples compared to control (PBS) ([4]; compound 8 administration groups): less
